# Experimental data taken from patent US10849336B2, “Cocoa-based food products” (IP Science Limited, priority 2011, dated 2020).
# “And” between values parts separate entries of the source, which are not always exact repeats. Equal entries are not always repeated.
# What was measured:
# CHD patients = assay: Clinical trial in CHD patients, daily lycopene, control chocolate or L-chocolate; format: in vivo, human
# Method: Commercially available dark chocolate (Green & Black's Dark Chocolate; 85% cocoa) was melted at 70° C. The melted chocolate was mixed with tomato oleoresin, containing 15% of lycopene (Lyc-O-Mato), in the ratio of 1.57 mg of oleoresin to 1 g of the chocolate. The mixture was blended for 10 minutes and then divided into daily […] 30 g portions and cooled down to the room temperature.
# Each […] 30 g chocolate portion contained 47.1 mg of tomato oleoresin or about 7 mg of lycopene.
# The melting and mixing procedures were performed as described above using the same commercially available dark chocolate, but instead of tomato oleoresin, sunflower oil (Floral™) was used.
# 47.1 mg of tomato oleoresin was pre-dissolved in ethanol and mixed with Whey Protein as described in Richelle et al (2002) J Nutr 132 404-408, WO01/091588 and US2002/01072992. Then the mixture was placed into gelatine capsules.
# 18 male CHD patients, age 47-69, were recruited for this study.
# Main inclusion criteria were: • elevated total serum cholesterol above 200 mg/dL and/or triglycerides above 150 mg/dL, • all patients were naive for any lipid-lowering medications, • stable clinical conditions and regimen of medications was t the last 3 months.
# Secondary inclusion criteria were: • positive blood markers on inflammatory oxidative damage, IOD, >20-30 μM MDA • positive blood on an antibody inflammatory marker, Px-IgG>0.250-0.300 U/ml
# All patients were randomised and divided into three equal groups of 6 patients each. Two groups receiving chocolate were blinded; the group receiving lycopene preparation along was open labelled. The period of the trial was 4 weeks.
# cholesterol = details: cited from earlier work
# [1] = Baseline, group mean (unlabelled last line)
# [2] = Week 1, group mean (unlabelled last line)
# [3] = Week 2, group mean (unlabelled last line)
# [4] = Week 3, group mean (unlabelled last line)
smiles,measurement,setting,value
CC(C)=CCC/C(C)=C/C=C/C(C)=C/C=C/C(C)=C/C=C/C=C(C)/C=C/C=C(C)/C=C/C=C(\C)CCC=C(C)C [Lycopene],ALT,CHD patients; [1],29.2 U/L
same,AST,CHD patients; [1],37.3 U/L
same,GL,CHD patients; [1],5.4 mmol/L
same,HDL,CHD patients; [1],40.5 mg/dL
same,IOD,CHD patients; [1],95 μM MDA
same,LDL,CHD patients; [1],157 mg/dL
same,Px-IgG,CHD patients; [1],0.762 U/ml
same,TC,CHD patients; [1],222 mg/dL
same,TG,CHD patients; [1],149 mg/dL
same,ALT,"CHD patients; Baseline, individual patient",35 U/L and 29 U/L and 26 U/L and 25 U/L and 36 U/L and 24 U/L
same,AST,"CHD patients; Baseline, individual patient",27 U/L and 49 U/L and 25 U/L and 44 U/L and 45 U/L and 34 U/L
same,GL,"CHD patients; Baseline, individual patient",4.4 mmol/L and 5.9 mmol/L and 6.1 mmol/L and 6.5 mmol/L and 5.6 mmol/L and 3.8 mmol/L
same,HDL,"CHD patients; Baseline, individual patient",44 mg/dL and 37 mg/dL and 40 mg/dL and 39 mg/dL and 42 mg/dL and 41 mg/dL
same,IOD,"CHD patients; Baseline, individual patient",95 μM MDA and 83 μM MDA and 49 μM MDA and 101 μM MDA and 162 μM MDA and 79 μM MDA
same,LDL,"CHD patients; Baseline, individual patient",161 mg/dL and 186 mg/dL and 147 mg/dL and 153 mg/dL and 159 mg/dL and 135 mg/dL
same,Px-IgG,"CHD patients; Baseline, individual patient",0.803 U/ml and 0.751 U/ml and 0.743 U/ml and 0.698 U/ml and 0.811 U/ml
same,TC,"CHD patients; Baseline, individual patient",219 mg/dL and 243 mg/dL and 210 mg/dL and 225 mg/dL and 231 mg/dL and 204 mg/dL
same,TG,"CHD patients; Baseline, individual patient",126 mg/dL and 165 mg/dL and 157 mg/dL and 161 mg/dL and 150 mg/dL and 134 mg/dL
same,ALT,CHD patients; [2],31.5 U/L
same,AST,CHD patients; [2],39.7 U/L
same,GL,CHD patients; [2],5.3 mmol/L
same,HDL,CHD patients; [2],40.3 mg/dL
same,IOD,CHD patients; [2],96 μM MDA
same,LDL,CHD patients; [2],157 mg/dL
same,Px-IgG,CHD patients; [2],0.823 U/ml
same,TC,CHD patients; [2],221 mg/dL
same,TG,CHD patients; [2],150 mg/dL
same,ALT,"CHD patients; Week 1, individual patient",31 U/L and 33 U/L (2×) and 29 U/L (2×) and 34 U/L
same,AST,"CHD patients; Week 1, individual patient",47 U/L and 46 U/L and 36 U/L and 31 U/L and 44 U/L and 34 U/L
same,GL,"CHD patients; Week 1, individual patient",6.4 mmol/L and 5.7 mmol/L and 4.9 mmol/L and 3.6 mmol/L and 5.1 mmol/L and 6.1 mmol/L
same,HDL,"CHD patients; Week 1, individual patient",39 mg/dL and 42 mg/dL and 40 mg/dL (2×) and 43 mg/dL and 38 mg/dL
same,IOD,"CHD patients; Week 1, individual patient",99 μM MDA and 158 μM MDA and 85 μM MDA and 94 μM MDA and 81 μM MDA and 57 μM MDA
same,LDL,"CHD patients; Week 1, individual patient",153 mg/dL and 160 mg/dL (2×) and 134 mg/dL and 185 mg/dL and 149 mg/dL
same,Px-IgG,"CHD patients; Week 1, individual patient",0.823 U/ml and 0.746 U/ml and 0.809 U/ml and 0.867 U/ml and 0.851 U/ml and 0.839 U/ml
same,TC,"CHD patients; Week 1, individual patient",224 mg/dL and 231 mg/dL and 205 mg/dL and 217 mg/dL and 241 mg/dL and 209 mg/dL
same,TG,"CHD patients; Week 1, individual patient",160 mg/dL and 152 mg/dL and 137 mg/dL and 130 mg/dL and 164 mg/dL and 159 mg/dL
same,ALT,CHD patients; [3],30.8 U/L
same,AST,CHD patients; [3],37.5 U/L
same,GL,CHD patients; [3],5.2 mmol/L
same,HDL,CHD patients; [3],40.3 mg/dL
same,IOD,CHD patients; [3],92 μM MDA
same,LDL,CHD patients; [3],156 mg/dL
same,Px-IgG,CHD patients; [3],0.818 U/ml
same,TC,CHD patients; [3],221 mg/dL
same,TG,CHD patients; [3],150 mg/dL
same,ALT,"CHD patients; Week 2, individual patient",29 U/L and 31 U/L (2×) and 28 U/L and 32 U/L and 34 U/L
same,AST,"CHD patients; Week 2, individual patient",43 U/L and 42 U/L and 31 U/L and 38 U/L and 41 U/L and 30 U/L
same,GL,"CHD patients; Week 2, individual patient",6.6 mmol/L and 5.2 mmol/L and 5.4 mmol/L and 4.1 mmol/L and 3.9 mmol/L and 6 mmol/L
same,HDL,"CHD patients; Week 2, individual patient",39 mg/dL (2×) and 41 mg/dL (2×) and 40 mg/dL and 42 mg/dL
same,IOD,"CHD patients; Week 2, individual patient",95 μM MDA and 139 μM MDA and 84 μM MDA and 91 μM MDA and 75 μM MDA and 68 μM MDA
same,LDL,"CHD patients; Week 2, individual patient",152 mg/dL and 158 mg/dL and 133 mg/dL and 159 mg/dL and 183 mg/dL and 150 mg/dL
same,Px-IgG,"CHD patients; Week 2, individual patient",0.812 U/ml and 0.809 U/ml and 0.815 U/ml and 0.844 U/ml and 0.830 U/ml and 0.799 U/ml
same,TC,"CHD patients; Week 2, individual patient",223 mg/dL and 230 mg/dL and 208 mg/dL (2×) and 216 mg/dL and 239 mg/dL
same,TG,"CHD patients; Week 2, individual patient",159 mg/dL and 151 mg/dL and 138 mg/dL and 132 mg/dL and 162 mg/dL and 158 mg/dL
same,ALT,CHD patients; [4],29.3 U/L
same,AST,CHD patients; [4],37.8 U/L
same,GL,CHD patients; [4],5.22 mmol/L
same,HDL,CHD patients; [4],40.2 mg/dL
same,IOD,CHD patients; [4],94 μM MDA
same,LDL,CHD patients; [4],154 mg/dL
same,Px-IgG,CHD patients; [4],0.806 U/ml
same,TC,CHD patients; [4],219 mg/dL
same,TG,CHD patients; [4],149 mg/dL
same,ALT,"CHD patients; Week 3, individual patient",32 U/L and 29 U/L and 25 U/L and 31 U/L (2×) and 28 U/L
same,AST,"CHD patients; Week 3, individual patient",42 U/L (2×) and 39 U/L and 35 U/L and 36 U/L and 33 U/L
same,GL,"CHD patients; Week 3, individual patient",6.2 mmol/L and 4.8 mmol/L and 5.1 mmol/L and 5 mmol/L and 4.4 mmol/L and 5.8 mmol/L
same,HDL,"CHD patients; Week 3, individual patient",39 mg/dL and 42 mg/dL and 40 mg/dL and 41 mg/dL (2×) and 38 mg/dL
same,IOD,"CHD patients; Week 3, individual patient",94 μM MDA and 136 μM MDA and 85 μM MDA and 93 μM MDA and 76 μM MDA and 81 μM MDA
same,LDL,"CHD patients; Week 3, individual patient",151 mg/dL and 157 mg/dL and 132 mg/dL and 155 mg/dL and 179 mg/dL and 152 mg/dL
same,Px-IgG,"CHD patients; Week 3, individual patient",0.834 U/ml and 0.781 U/ml and 0.84 U/ml and 0.795 U/ml and 0.809 U/ml and 0.774 U/ml
same,TC,"CHD patients; Week 3, individual patient",221 mg/dL and 227 mg/dL and 210 mg/dL and 214 mg/dL and 232 mg/dL and 211 mg/dL
same,TG,"CHD patients; Week 3, individual patient",155 mg/dL and 149 mg/dL and 135 mg/dL and 142 mg/dL and 161 mg/dL and 154 mg/dL
same,"changes in levels of elevated cholesterol, triglycerides and markers of oxidative damage or inflammation","CHD patients; after two weeks of administration, 7 mg lycopene or 30 g control bar",no changes
same,cholesterol-lowering effect,"cholesterol; 13 clinical studies, daily doses 25 mg of lycopene or above",7.55 ± 6.15 mg/dL
same,effect on cholesterol or other blood lipids,cholesterol; daily consumption of 6-10 mg,no effect on cholesterol or other blood lipids
